One series concerns potatoes. In words: sprouting on continued storage after large-scale treatment. Format: in vivo. Here is the method:
Three to four repeated treatments of the product being stored are carried out in practice at regular time intervals.
A storage aid is therefore also suitable for sprouting suppression in seed potatoes for a limited period of time.
Therefore, seed potatoes must not, in principle, ever be treated directly with a growth regulator.

Series [1] is described as follows: losses due to evaporation (FIG. 1). The settings on record: 30° C., after 30 days. Format: physicochemical. An excerpt: FIG. 1 is a graph showing losses of isopropyl-N-(m-chlorophenyl) carbamate due to evaporation;
The conditions of series [2]: 25° C.; cited from earlier work.

Turning to `CC(C)OC(=O)Nc1cccc(Cl)c1` [CIPC, isopropyl-N-(m-chlorophenyl)-carbamate], in the series on potatoes, the “sprouting ability after conventional intensive hot fumigation (FIG. 5)” value is listed as “completely suppressed”. In addition, the “losses due to evaporation” value in series [1] turned out to be 0.03%.
For the compound `CCOC(=O)Nc1ccccn1` [ethyl-2-pyridyl carbamate], the vapor pressure in series [2] is given as 0.1 mbar.
In the case of trifluoromethyl-2-thienyl carbamate, in series [2], the vapor pressure was 5.5 mbar.
Consider `CC(C)OC(=O)Nc1ccccc1` [IPC, isopropyl-N-phenyl carbamate], for which the vapor pressure in series [2] is 0.144 mbar.

The values above are taken from patent US20150144521A1, “STORAGE AIDS COMPRISING PLANT PROTECTANTS AND THEIR USE” (priority 2012, published 2015).
